Patent US20080260770A1, “Use of Tellurium Compounds as Adjuvants” (BIOMAS LTD., priority 2004, published 2008)
Strand notation (5' to 3'): a small letter for the sugar, then the base; units joined by * are phosphorothioate-linked, units joined directly phosphodiester-linked; [ ] holds rarer units or linkages, { } end groups; capitals alone tell only the bases. d = 2'-deoxy (DNA)

Assays:
[1] = tested on: freshly isolated peripheral blood human monocytes; experiment: IL-12 p40 production by human monocytes (ELISA); format: cell-based; conditions: adherent PBMCs from a healthy donor, 0.5-2 μg/ml PBS, 24 hours incubation, FIG. 1
Method: Adherent Peripheral Blood Mononuclear Cells (PBMCs) from a tuberculin-negative healthy donor were incubated with AS101 or AS103 (0.5-2 μg/ml PBS) or E. coli lipopolysaccharide (LPS) (1 ng/ml PBS; Sigma) for 24 hours. Supernatants were collected after 28 hours for analysis of IL-12 production. Cell supernatants were determined using commercially available Enzyme-Linked Immunosorbent Assay (ELISA) kits (R&D Systems). Supernatants were tested for IL-12p40 by ELISA kit (Endogene).

[2] = tested on: rats; conditions: intravenous and intramuscular administration; cited from earlier work
[3] = tested on: KLH-specific IgG1 and IgG2a; experiment: Serum antibody responses to KLH in immunized mice (ELISA titers); format: in vivo
Method: Serum was obtained from mice immunized with depyrogenated keyhole limpet hemocyanin (KLH) (5 μg; Calbiochem, La Jolla, Calif.); with KLH plusphosphorothioate-stabilized oligodeoxynucleotide-containing CpG motifs (CpG-ODN) (5′-GCTAGACGTTAGCGT-3′), synthesized by Sigma-Genosys Ltd., Cambridge, United Kingdom; with KLH, plus CpG, plus AS101 (10 μg/ml PBS); or with Dulbecco's PBS alone (Sigma, Poole, United Kingdom), each in a final volume of 50 μl PBS.
On day 7 after immunization, mice were sacrificed by cervical dislocation, and serum and popliteal lymph nodes were collected. Titers of KLH-specific IgG1 and IgG2a in the serum of the immunized mice were determined by ELISA, and analysed for the presence of antibody subclasses IgG1 and IgG2a.

[4] = tested on: Murine bone marrow-derived dendritic cells; experiment: IL-12 p40 production by murine bone marrow-derived dendritic cells (ELISA); format: cell-based, mice; conditions: DC 10^6 cells/ml, 0.5-10 μg/ml PBS, supernatants after 24 hours, FIG. 2
Method: Murine bone marrow-derived dendritic cells (DC) were prepared by culturing bone marrow cells from the femur and tibia of mice in RPMI medium supplemented with 10% supernatant from a granulocyte-monocyte colony-stimulating factor-secreting cell line.
On day 7 of culture, cells were collected, washed, and resuspended in RPMI medium. DC (10^6 cells/ml) were cultured with AS101 or AS103 (0.5-10 μg/ml PBS), or with CpG. Supernatants were collected after 24 hours for analysis of IL-12 p40 production. Cell supernatants were determined using commercially available ELISA kits (R&D Systems).

Cl[TeH]1(Cl)(Cl)OCCO1 [AS101, ammonium trichloro(dioxyethylene-O,O′)tellurate]
IL-12 p40 production [1]: potent inducer
LD50 values relative to the immunologically effective dose [2]: 500-1000 folds
KLH-specific IgG1 response to KLH plus CpG on addition of the compound ([3]; 10 μg/ml PBS added to KLH plus CpG, day 7 after immunization, FIG. 3a): no further increase
production of KLH-specific IgG2a in response to KLH plus CpG on addition of the compound ([3]; 10 μg/ml PBS added to KLH plus CpG, day 7 after immunization, FIG. 3b): significantly increased
IL-12 p40 production [4]: potent inducer

Cl[Te]1(Cl)OCCO1 [AS 103]
IL-12 p40 production [1]: very low response

CpG: phosphorothioate-stabilized oligodeoxynucleotide-containing CpG motifs (CpG-ODN) (5′-GCTAGACGTTAGCGT-3′), synthesized by Sigma-Genosys (DNA dG*dC*dT*dA*dG*dA*dC*dG*dT*dT*dA*dG*dC*dG*dT) [reference compound]
KLH-specific antibody titer (IgG1 and IgG2a) on use together with KLH ([3]; KLH 5 μg plus CpG versus KLH alone, day 7, FIGS. 3a and 3b): increased
